Common to all, as to type: cell-based, Human
The test system of series [1] is HT29 cells. Nature of the series: Antiproliferative assay in HT29 cell monolayer (MTS). As to conditions: isolated compounds, HT29, 24 hours, mean ± SD. How it is done:
Human Caco-2 and HT29 cell lines were obtained from Deutsche Sammlung von Mikroorganismen und Zellkulturen (DSMZ, Germany) and American Type Culture Collection (ATCC, USA), respectively. These cell lines were cultured in RPMI 1640 medium supplemented with 10% of heat-inactivated fetal bovine serum (FBS) and 1% […] (PS). Cells were maintained at 37°C with 5% CO2 in a humidified incubator and routinely grown as a monolayer in 75 cm^2 culture flasks. The cell culture medium and supplements were purchased from Invitrogen (Gibco, Invitrogen Corporation, UK). Antiproliferative effect of […] and standard compounds was evaluated in HT29 cells, as described elsewhere. Briefly, cells were seeded at a density of 1 × 10^4 cells/well in 96-well culture plates. After 24 hours cells were incubated with different concentrations of the samples diluted in culture medium. Cells incubated only with culture medium were considered as control. Cell proliferation was measured after 24 hours using MTS, as mentioned above. Results were expressed in terms of percentage of living cells relatively to the control. At least three independent experiments were performed in triplicate. All data were expressed as mean ± standard errors (SD). GraphPad Prism 6 software was used to calculate EC50 values (the concentration of sample necessary to decrease 50% of cell population) and to analyse significant differences between data set through One-Way Analysis of Variance (ANOVA) following Dunnett's multiple comparison tests.

The nature of series [2]: Cytotoxicity assay (MTS) in confluent non-differentiated Caco-2 cells. The following applies: human, confluent, non-differentiated Caco-2 cells; isolated compounds; Caco-2, 24 hours, mean ± SD. How it is done: (§1) Human Caco-2 and HT29 cell lines were obtained from Deutsche Sammlung von Mikroorganismen und Zellkulturen (DSMZ, Germany) and American Type Culture Collection (ATCC, USA), respectively. These cell lines were cultured in RPMI 1640 medium supplemented with 10% of heat-inactivated fetal bovine serum (FBS) and 1% […] (PS). Cells were maintained at 37°C with 5% CO2 in a humidified incubator and routinely grown as a monolayer in 75 cm^2 culture flasks. The cell culture medium and supplements were purchased from Invitrogen (Gibco, Invitrogen Corporation, UK). Cytotoxicity assay was performed using confluent and non-differentiated Caco-2 cells, a model considered to assess the effect of chemical/food compounds and nano/microparticles on the intestinal function since it shares characteristics of the enterocytes. The assay was performed as previously described by Rodrigues et al.[71]. Briefly, Caco-2 cells were seeded into 96-well plates at a density of 2 × 10^4 cells/well and allowed to grow for 7 days, with medium renewal every 48 hours. At day 7, cells were incubated with the samples diluted in culture medium. Cells incubated only with culture medium were considered as control. After 24 hours, cells were washed once with PBS (Sigma-Aldrich, USA) and cell viability was assessed using CellTiter 96® AQueous One Solution Cell Proliferation Assay (Promega, USA) containing MTS reagent, according to manufacturer's instructions. The absorbance was measured at 490 nm using a Spark® 10 M Multimode Microplate Reader (Tecan Trading AG, Switzerland) and cell viability was expressed in terms of percentage of living cells relatively to the control. At least three independent experiments were performed in triplicate. All data were expressed as mean ± standard errors (SD). GraphPad Prism 6 software was used to calculate EC50 values (the concentration of sample necessary to decrease 50% of cell population) and to analyse significant differences between data set through One-Way Analysis of Variance (ANOVA) following Dunnett's multiple comparison tests.

Series [3] has as its system Caco-2 cells. The description is as above. As to conditions: isolated compounds; Caco-2, 24 hours, mean ± SD. How it is done:
as §1

The test system of series [4] is HT29 cells. Nature of the series: Cell cycle assessment by flow cytometry. As to conditions: HT29, 24 hours, non-cytotoxic concentrations. How it is done: HT29 cell line was seeded at a density of 1 × 10^6 cells in a 25 cm^2 culture flask for 24 hours. Then, cells were incubated in different concentrations of the samples diluted in culture medium and culture medium alone (as control) for 24 hours. For flow cytometry analysis of DNA content, bare nuclei were prepared as described elsewhere. Briefly, cells were detached from the culture flasks with trypsin-EDTA 0.5% and washed one time with cold PBS. Finally, 1 × 10^6 cells were re-suspended in 1 mL of staining solution containing […] of Propidium Iodide (Sigma-Aldrich, USA), 1.5% (v/v) of Triton X-100 (Sigma-Aldrich, USA), 0.7 U/mL of DNase/protease-free Ribonuclease A (Thermo Scientific, USA) and 0.01 M of NaCl, followed by incubation at room temperature in the dark for 2 hours. Cell cycle was assessed by flow cytometry, using a CyFlow space (Partec GmbH) instrument, registering 30.000 events/sample as described previously.
(In flow cytometry, cells or beads pass a laser one at a time.)

The subject of series [5] is HT29 cells. Nature of the series: Caspase-3 activity induction (apoptosis). As to conditions: HT29, 24 hours, 2 mM. How it is done: Apoptosis was evaluated by caspase-3 activity using NucView488TM and MitoView633TM Apoptosis Assay Kit (Biotium, USA) that allows the staining of living cells with a far-red fluorescent dye MitoView633TM, while the intracellular caspase-3/7 activity and cells nuclei morphological changes were stained with bright green fluorescent dye NucView488TM. HT29 cells were seeded at a density of 40.000 cell/cm^2 at 24-well plate for 24 hours. Then, cells were incubated another 24 hours with different concentrations of the samples diluted in culture medium and culture medium alone (as control). Staining was performed with 200 μL/well of culture medium containing 1 μL of NucView488TM and 1 μL of MitoView633TM for 2 hours.

Take `CC1CCC(C(C)C)C(O)C1` (centres unmarked) [Menthol, menthol]: the EC50 in series [1] (Homo sapiens, HT-29) amounted to 4.73 mM. For the same compound, in series [2], the EC50 at 24 h stood at 8.08 ± 0.81 mM.

As to `CCCCCCCCCC(=O)O` [CA, Capric acid], the EC50 amounted to 0.341 ± 0.081 mM in series [1] and 1.33 ± 0.223 mM in series [3].

Regarding `CC(C)Cc1ccc(C(C)C(=O)O)cc1` (centres unmarked) [IBU, Ibuprofen], it took 2.35 ± 0.088 mM to reach a half-maximal effect in series [1] (Homo sapiens, HT-29) (EC50). In addition, a half-maximal response in series [2] (EC50 at 24 h) required 2.89 ± 0.059 mM. For the same compound, in series [4], the “Effect on cell cycle” value is on record as “promoted cell cycle arrest in G1-phase”.

In the case of S-Limonene, the EC50 in series [1] was 0.661 ± 0.025 mM; in series [3] it was 2.64 ± 0.108 mM. Also, the “Induction of apoptosis (caspase-3 activity)” value in series [5] is “capable of inducing apoptosis via caspase-3 activity”. The “Effect on cell cycle” value in series [4] was “promoted cell cycle arrest in G1-phase”.

For orientation: EC50 means the concentration giving half of the maximal effect.
